Assay results reported in US8053477B2, “Inhibitors of the S100-p53 protein-protein interaction and method of inhibiting cancer employing the same” (University of Maryland, Baltimore, priority 2002, dated 2011).
Numbering of substitutions follows the chain as printed. Where two headings read alike, the source gives them in different places. One block for each compound: values may come before it. Where no end group is shown, it is not given here.

What was measured:
C8146A melanoma cells = experiment: siRNA transfection of C8146A melanoma cells, Western blots of S100B, p53, p21; assay type: cell-based, human; conditions: siRNA 2.0, 20 nM; harvested 24 hrs after transfection
Experimental: The small interfering RNA (siRNA) used consisted of […] (nt) double-stranded RNA, which was synthesized by Xeragon Inc. (Huntsville, Ala.). The sequence of the siRNA, i.e., 5′-ACUACUGCCUGCCACGAGUUC-3 (SEQ ID NO:6), corresponds to the S100β C-terminal end (nt 244-265) plus two dT 3′ overhang.
Different concentrations of siRNA (2.0, 20 nM) were added to the cells along with 2.0 μg of pCMV.3 empty vector (Stratagene, La Jolla, Calif.). The siRNA was transfected in C8146A melanoma cells using FuGENE reagent (Roche Molecular Biochemicals, Indianapolis, Ind.) according to the manufacturer's recommendation. The cells were harvested 24 hrs later and analyzed by Western blots as described above.

S100B [1] = biological target: T1, S100B (UniProt P04631); experiment: Fluorescence binding / competition titrations of small molecules to S100B
T1 sequence (P04631 1-92): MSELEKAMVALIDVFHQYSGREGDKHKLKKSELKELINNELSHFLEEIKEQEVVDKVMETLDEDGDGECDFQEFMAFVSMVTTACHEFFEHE
Experimental: (§1) Inhibition of binding of S100 proteins to p53 can be assayed by fluorescence binding/competition assays. For example, binding to S100B is monitored using fluorescent peptides such as the F43W p53 peptide ([…] (SEQ ID NO:1)) or the TRTK-12 peptide ([…] (SEQ ID NO:2)) that both contain fluorescent tryptophan residues (see Example 7). In such an assay, the binding of the peptide is monitored by changes in its fluorescence intensity at 350-370 nm in the presence of 10-20 mM calcium chloride (pH 7.4). Displacement of the peptide by the test compound is then monitored by a corresponding decrease in fluorescence intensity and the dissociation constant of the test compound from S100B is calculated using a standard competition equation (KD=Kapp/(1+[floursecent peptide]/KD peptide). The amino acid residues on S100B to which the test compound binds can then monitored by chemical shift perturbations using NMR spectroscopy.
The binding of the small molecules to S100B identified in the CADD search were measured using fluorescence spectroscopy. The compounds identified are as follows:
Compounds that fluorescent (i.e., for Compounds 9, 31 and 33) were measured by a direct binding assay to S100B via fluorescence intensity changes. […] First, changes in tyrosine fluorescence (for Tyr-17 of S100B) were sufficient in some cases to evaluate binding (Rustandi et al (1998), supra; and Szabo et al, FEBS Lett., 94:249-252 (1978)). However, to circumvent problems associated with the low quantum yield of the tyrosine residue, the F43W mutant of S100B was used (FIG. 12A), and then competition studies were done with wild-type S100B (FIG. 12B). In this S100B construct (in F43W S100B), the tryptophan residue is located in the target protein binding site, so the emission of the tryptophan mutant was measured in a straightforward manner at 338 nm as a function of adding compound. This F43W mutant has similar structure, Ca^2+-binding and target binding properties of wild-type S100B. Another approach was to bind a fluorescent probe to wild-type S100B and do competition binding assays with the compound. […] Steady state experiments to determine binding constants were performed on Aminco Bowman Series 2 Luminescence Spectrophotofluorometer with the temperature of the cell (quartz cuvettes) maintained at 25° C. Two internal controls were performed in all titrations. EGTA was added to S100B to chelate the calcium and determine whether the interaction with the drug requires the Ca^2+-dependent conformational change observed for a number of protein targets (Weber et al, supra). In addition, the titrations were performed in the absence of calcium as a control. All compounds with fluorescence emission spectra were also routinely evaluated for photobleaching before proceeding. Buffers were also checked routinely for any contaminants that may fluoresce.

[2] = test system: primary malignant melanoma cells (C8146A and HTB 64); experiment: Growth of primary malignant melanoma cells (cell counting after 13 days); assay type: cell-based; conditions: Homo sapiens
Experimental: (§2) The effect that compounds have on the growth of primary malignant melanoma cells (cell lines: C8146A and HTB 64) and normal melanocytes (Cell Applications Inc. 104-05 from neonatal foreskin) were measured. […] The growth inhibition constants (IC50 values) results from other compounds are listed above. In these studies, typically ˜10,000 cells were distributed evenly across T25 vials. One day later, new media with or without the small molecule (2.5 μM or 25 μM) was added, and the cells were allowed to grow for an additional 13 days. Because some molecules were delivered in DMSO, the effect of DMSO (0.1-0.2% (v/v)) on cell growth was also checked and found to have no effect at these levels (FIG. 13). At this point, the cells were washed in phosphate buffer saline (PBS), harvested by treatment with trypsin, and placed in F10 media with 5.0% (v/v) fetal bovine serum (FBS), 5.0% (v/v) newborn calf serum (NCS), and 2.0% (w/v) penicillin/streptomycin. The cells were counted with a hemocytometer in quadruplicate trials.

holo-S100B = biological target: T2, holo-S100B (Homo sapiens, UniProt P04271); experiment: NMR mapping of binding interface (HSQC chemical shift perturbation, STD); conditions: 37° C.
T2 construct: made in house
T2 sequence (P04271 1-92): T1 sequence (P04631 1-92) with E63N, S79A
Experimental: NMR spectroscopy experiments were carried out to determine what amino acid residues of S100B and the small molecule are interacting (FIG. 14). Resonances of S100B that interact with the small molecules were identified by titrating compounds into holo-S100B and monitoring perturbations in chemical shifts of backbone amide-proton correlations in a ^15N-edited HSQC spectrum (Mori et al, J. Magnetic Resonance, B108:94-98 (1995)). […] An example of mapping the Compound-S100B interface is provided in FIGS. 14A-14C for the interaction between holo-S100B and Compound 4. […] These residues are highlighted red in FIG. 14C for titrations with Compound 4. Resonance assignments of S100B bound to the small molecules were confirmed using a 3D NOESY-HSQC experiment, and the backbone and sidechain chemical shifts of Ca^+2-loaded S100B and S100B bound to p53 peptide as described by Drohat et al (1998), supra; Rustadni et al (2000), supra; and Rustadni et al (1998), supra, were also helpful in the assignment procedure. Regions of the inhibitors that interact with S100B were identified using epitope mapping via saturation transfer difference experiments (STDs) as described by Mayer et al, J. Am. Chem. Soc., 123:6108-6117 (2001). In FIG. 14A, protons of the compound that are proximal to S100B are indicated by arrows. […]

[3] = test system: normal melanocytes (neonatal foreskin); experiment: Growth of normal melanocytes (cell counting); assay type: cell-based; conditions: compared with melanoma cells
Experimental: as §2

S100B [4] = biological target: T1, S100B; experiment: Fluorescence binding / competition titrations of small molecules to S100B; set-up: rows headed: KD of fluorescent probe peptide for S100B; conditions: read-out: KD of fluorescent probe peptide for S100B; probes used in competition studies with wild-type S100B
Experimental: as §1
The binding of the small molecules to S100B identified in the CADD search were measured using fluorescence spectroscopy. […]
Compounds that fluorescent (i.e., for Compounds 9, 31 and 33) were measured by a direct binding assay to S100B via fluorescence intensity changes. […] First, changes in tyrosine fluorescence (for Tyr-17 of S100B) were sufficient in some cases to evaluate binding (Rustandi et al (1998), supra; and Szabo et al, FEBS Lett., 94:249-252 (1978)). […]

MCF-7 = experiment: Bleomycin treatment of MCF-7 cells, Western blots of p53, mdm2, p21; assay type: cell-based, human; conditions: MCF-7, wild type p53; FIG. 6B lane 2
Text: Next, it was explored whether S100B could interact with endogenous p53 and affect the expression of mdm2 and p21. The human breast cancer cell line MCF-7, which has a wild type p53 genotype (Kastan et al, Cell, 71:587-597 (1992)), was transiently transfected with S100B. After S100B transfection, the cells were either treated (or not) with the x-ray mimic agent bleomycin to induce endogenous p53 production.

[5] = direct fluorescence, F43W S100B or peptide-probe competition, 25° C., calcium present, read-out: Kd (binding to S100B, fluorescence spectroscopy)
[6] = 312 h, primary malignant melanoma cells, screened at 2.5 μM or 25 μM, 13 days, read-out: IC50 (growth inhibition constant)

Compound: 5′-ACUACUGCCUGCCACGAGUUC-3 [siS100B]
increase in p53 levels (C8146A melanoma cells): 2.3 fold | lowering of S100B levels (C8146A melanoma cells): 3 fold | up-regulation of p21 protein levels (C8146A melanoma cells): 2.6 fold

Compound: N=C(N)NC(=N)Nc1cccc(Cl)c1Cl [Compound 3, {[(2,3,dichloroanilino)(imino)methyl]amino}methanimidamide]
IC50 ([2]; primary malignant melanoma cells, read-out: IC50 (growth inhibition constant), unit inferred): < 2.5 µM

Compound: O=C(O)c1cc(N/N=C/c2ccc(-c3ccc(Cl)c(C(=O)O)c3)o2)ccc1Cl [Compound 31]
Kd (S100B [1]; [5]): ~6 µM | IC50 [2, 6]: ~25 µM

Compound: COc1cc(C2Nc3ccccc3-c3nc(SC)nnc3O2)ccc1OCC(=O)O (stereo not drawn) [Compound 33, 1,2-(3-methylthiotraizine),3,4-phenyl,6-[(2-methoxyphenoxy)Acetic Acid]morpholine]
IC50 [2, 6]: ~25 µM

Compound: CC(C)(C)NC(=O)c1cccc(N2C(=O)c3ccc(C(=O)O)cc3C2=O)c1 [Compound 44, 2-(3-tert-Butylcarbamoyl-phenyl)-1,3-dioxo-2,3-dihydro-1H-isoindole-5-carboxylic acid]
Kd (S100B [1]; [5]): ~24 µM

Compound: COc1cccc(N2C(=O)c3ccc(C(=O)Nc4cc(C(=O)O)cc(C(=O)O)c4)cc3C2=O)c1 [Compound 45, 5-{[2-(3-Methoxy-phenyl)-1,3-dioxo-2,3-dihydro-1H-isoindole-5-carbonyl]-amino}-isophthalic acid]
Kd (S100B [1]; [5]): ~12 µM

Compound: SHLKSKKGQSTSRHKKLMWKTE [p53 (F385W), reference compound]
Kd (S100B [4]): 3 µM

Compound: bleomycin
basal levels of p53, mdm2 and p21, in words (MCF-7): induced

Further lines, with some results ahead:

Kd (S100B [1]; [5]): 2.7 µM | IC50 [2, 6]: 2.5 µM
Compound: O=C(COc1ccc(C(F)(F)F)c[n+]1[O-])c1cccc([N+](=O)[O-])c1 [Compound 1, 2-[2-(3-nitrophenyl)-2-oxoethoxy]-5-(tri-fluoromethyl)pyridinium-1-olate]

Kd (S100B [1]; [5]): 2 µM
Compound: Cc1c(NS(=O)(=O)c2ccc(NC(=O)CCC(=O)O)cc2)c(=O)n(-c2ccccc2)n1C [Compound 4, 4-(4-{[(1,5-dimethyl-3-oxo-2-phenyl-2,3,dihydro-1H-pyrazol-4-yl)amino]sulfonyl}anilino)-4-oxo butanoic acid]
binding site on S100B by NMR (holo-S100B): interacts with the C-terminus of S100B (loop 4) and another region of S100B (loop 2)

Kd (S100B [1]; [5]): 4 µM
Compound: N=C(N)NC(=N)Nc1ccc(Cl)cc1C(=O)c1ccccc1 [Compound 9, {[(2-benzoyl-4-chloroanilino)(imino)methyl]amino}methanimidamide]

Kd (S100B [1]; [5]): 1.4 µM | Kd (S100B [1]; read-out: binding constant (KD) between wild-type holo-S100B and pentamidine, competition of pentamidine bound to F43W S100B with wild-type S100B): 0.7 µM | IC50 ([2]; primary malignant melanoma cells (C8146A), read-out: IC50 for inhibition of cell growth): ~0.5 µM | binding site on S100B by NMR (holo-S100B): in the p53 binding site
Compound: N=C(N)c1ccc(OCCCCCOc2ccc(C(=N)N)cc2)cc1 [pentamidine, reference compound]
effect on normal melanocytes, in words [3]: lesser effects on normal melanocytes
